Counter-ions that a name gives are not always drawn.
Key:
mu opioid receptors = molecular target: mu opioid receptors; set-up: key to Ke, M: No agonist antagonism observed; conditions: GPI, cited from earlier work; for Kb: read-out: Ke, M (morphine), agonist morphine, antagonist 100 or 200 nM, 15 min
kappa opioid receptors = molecular target: kappa opioid receptors; set-up: key to Ke, EK: No agonist antagonism observed; conditions: GPI, cited from earlier work; for Kb: agonist ethylketazocine, antagonist 100 or 200 nM, 15 min, read-out: Ke, EK
[1] = system: mouse vas deferens (MVD) and guinea pig ileum (GPI) preparations; conditions: cited from earlier work
delta opioid receptors [2] = molecular target: T1, delta opioid receptors (Mus musculus, UniProt P32300); set-up: key: No agonist antagonism observed; conditions: MVD; compound 7 tested at 5 nM or less; cited from earlier work
delta opioid receptors [3] = molecular target: T1, delta opioid receptors; experiment: antagonism of DADLE in the mouse vas deferens (MVD) preparation; conditions: compared with 1 or its congeners
Procedure: Mouse Vas Deferens (MVD). […] Both vasa deferentia were dissected out of mice and mounted singly through two platinum ring electrodes in a 10 ml organ bath. The bath contained Krebs bicarbonate solution that was continuously bubbled with 95% O2 and 5% CO2. The organ bath was maintained at 37° C. The tissue was attached to an isometric transducer and stimulated transmurally with rectangular pulses (0.1 Mz, 1 ms duration, supramaximal voltage). Drugs were added cumulatively to the bath in 10- to 50-μL amounts and washed out after noting their maximum effect.
The compounds were tested in vitro on the mouse vas deferens (MVD) and guinea pig ileum (GPI) preparations. […] The IC50 value was divided by the control IC50 value in the same tissue, and this IC50 ratio (DR) was employed to calculate the Ke value using the equation Ke=[antagonist]/(DR-1).

δ opioid receptor = molecular target: T2, δ opioid receptor (Mus musculus, UniProt P32300); experiment: antagonism of DADLE on MVD preparations (Example 7); type: cell-based; conditions: for IC50 ratio (DADLE): MVD, 100 nM of each compound, NTI = 20 nM, 15 min
T2 construct: Both vasa deferentia were dissected out of mice; from tissue; host or cells: mouse vas deferens (isolated, electrically stimulated)
Procedure: 2. Mouse Vas Deferens (MVD). […] The organ bath was maintained at 37° C.
Concentration-response curves were obtained in the absence (control) and the presence of the antagonist are expressed as IC50 values. […] Therefore, a high IC50 ratio represents a correspondingly high degree of antagonism at a particular receptor. […] Therefore, a low Ke represents a correspondingly high degree of binding at a particular receptor.

guinea pig ileum (GPI) = conditions: standard result; cited from earlier work
μ opioid receptor = μ opioid receptor (Cavia porcellus, UniProt A0ACM8Q262); experiment: antagonism of morphine in the GPI (Example 7); type: cell-based, guinea pig; conditions: morphine as agonist, read-out: Ke, μ (Table VII)
Procedure: 1. Guinea Pig Ileal Longitudinal Muscle (GPI). Ilea from guinea pigs were taken approximately 10 cm from the ileocaecal junction, and a strip of longitudinal muscle with the myenteric plexus attached was prepared by method of Rang et al., Brit. J. Pharmacol., 22, 356 (1964), the disclosure of which is incorporated by reference herein. A 1 cm portion of this strip was then mounted between two platinum electrodes placed in a 10 ml organ bath and connected to an isometric transducer. Contractions were recorded on a polygraph. […] The organ bath was maintained at 36°-37° C. The longitudinal muscle strip was allowed to equilibrate with continuous stimulation for a minimum of 90 min.

[4] = compound 7 tested at 5 nM or less

T1 sequence (P32300 whole entry): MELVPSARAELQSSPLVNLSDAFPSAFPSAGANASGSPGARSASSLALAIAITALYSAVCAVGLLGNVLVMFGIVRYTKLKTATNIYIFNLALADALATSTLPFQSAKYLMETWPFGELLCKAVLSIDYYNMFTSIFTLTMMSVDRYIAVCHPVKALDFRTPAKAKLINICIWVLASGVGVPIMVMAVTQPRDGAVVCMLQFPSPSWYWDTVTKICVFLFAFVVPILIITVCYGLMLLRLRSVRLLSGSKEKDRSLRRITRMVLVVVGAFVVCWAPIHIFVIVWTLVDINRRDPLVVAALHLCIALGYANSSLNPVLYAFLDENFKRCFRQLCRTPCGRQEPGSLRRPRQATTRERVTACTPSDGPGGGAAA
T2 sequence (P32300 whole entry): as above
μ opioid receptor, sequence (A0ACM8Q262 1-400): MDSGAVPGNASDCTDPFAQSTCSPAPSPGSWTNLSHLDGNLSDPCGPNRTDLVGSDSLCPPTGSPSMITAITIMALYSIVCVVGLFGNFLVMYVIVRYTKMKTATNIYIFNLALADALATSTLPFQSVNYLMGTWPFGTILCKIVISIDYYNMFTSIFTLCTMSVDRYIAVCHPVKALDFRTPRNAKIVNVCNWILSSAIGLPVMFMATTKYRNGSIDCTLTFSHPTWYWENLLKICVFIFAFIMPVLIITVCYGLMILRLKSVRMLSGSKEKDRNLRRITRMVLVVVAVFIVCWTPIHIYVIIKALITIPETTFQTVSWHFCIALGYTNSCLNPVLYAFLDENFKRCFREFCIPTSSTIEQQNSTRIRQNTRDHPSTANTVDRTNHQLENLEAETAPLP

| Compound | Kb (mu opioid receptors) [nM] | Kb (kappa opioid receptors) [nM] | Kb (δ opioid receptor) [nM] | IC50 ratio (DADLE) (δ opioid receptor) | further results |
| --- | --- | --- | --- | --- | --- |
| Cn1c2c(c3ccccc31)C[C@@]1(O)[C@H]3Cc4ccc(O)c5c4[C@@]1(CCN3CC1CC1)[C@H]2O5 [Compound 2] | 12.5 | 22.2 |  |  |  |
| Oc1ccc2c3c1O[C@H]1c4[nH]c5ccc(F)cc5c4C[C@@]4(O)[C@@H](C2)N(CC2CC2)CC[C@]314 [Compound 3] | 61.7 | 46.2 |  |  |  |
| COc1ccc2[nH]c3c(c2c1)C[C@@]1(O)[C@H]2Cc4ccc(O)c5c4[C@@]1(CCN2CC1CC1)[C@H]3O5 [Compound 4] | 63 | 12.6 |  |  |  |
| Cc1ccc2[nH]c3c(c2c1)C[C@@]1(O)[C@H]2Cc4ccc(O)c5c4[C@@]1(CCN2CC1CC1)[C@H]3O5 [Compound 5] | > 160 | > 250 |  |  |  |
| O=[N+]([O-])c1ccc2[nH]c3c(c2c1)C[C@@]1(O)[C@H]2Cc4ccc(O)c5c4[C@@]1(CCN2CC1CC1)[C@H]3O5 [Compound 6] | 92 | ≥ 200 |  |  |  |
| CN1CC[C@]23c4c5ccc(O)c4O[C@H]2c2[nH]c4ccccc4c2C[C@@]3(O)[C@H]1C5 [Compound 7] |  |  |  |  | Ke, M (mu opioid receptors; [4]): e; Ke, EK (kappa opioid receptors; [4]): e; antagonist activity of compound 7 ([1]; at 5 nM): inactive; agonist activity ([1]; in words): partial agonist activity; Ke, DADLE (delta opioid receptors [2]): e |
| Oc1ccc2c3c1O[C@H]1c4oc5ccccc5c4C[C@@]4(O)[C@@H](C2)N(CC2CC2)CC[C@]314 [Compound 8, (17-cyclopropylmethyl)-6,7-dehydro-3,14β-dihydroxy-4,5α-epoxy-6,7-2',3'-benzo[b]furanomorphinan] | 30.8 | 50.8 |  |  | delta antagonist potency / selectivity in words (delta opioid receptors [3]): less potent and less selective than 1 as a delta antagonist, nevertheless retains substantial delta antagonist activity |
| Oc1ccc2[nH]c3c(c2c1)C[C@@]1(O)[C@H]2Cc4ccc(O)c5c4[C@@]1(CCN2CC1CC1)[C@H]3O5 [Compound 9] | 27.2 | 68.5 |  |  |  |
| Oc1ccc2c3c1O[C@H]1c4[nH]c5cccc(F)c5c4C[C@@]4(O)[C@@H](C2)N(CC2CC2)CC[C@]314 [Compound 10] | > 125 | > 170 |  |  |  |
| Oc1ccc2c3c1O[C@H]1c4[nH]c5c(F)cccc5c4C[C@@]4(O)[C@@H](C2)N(CC2CC2)CC[C@]314 [Compound 11] | 5.3 | > 330 |  |  |  |
| Cc1cccc2c3c([nH]c12)[C@@H]1Oc2c(O)ccc4c2[C@@]12CCN(CC1CC1)[C@H](C4)[C@]2(O)C3 [Compound 13] | 19.1 | > 330 |  |  |  |
| COc1cccc2c3c([nH]c12)[C@@H]1Oc2c(O)ccc4c2[C@@]12CCN(CC1CC1)[C@H](C4)[C@]2(O)C3 [Compound 14] | 35 |  |  |  |  |
| Oc1ccc2c3c1O[C@H]1c4nc5ccccc5nc4C[C@@]4(O)[C@@H](C2)N(CC2CC2)CC[C@]314 [Compound 16] | 6.1 | 13.4 |  |  | delta antagonist potency / selectivity in words (delta opioid receptors [3]): A similar relationship was observed |
| Oc1ccc2c3c1O[C@H]1c4nc5ccccc5cc4C[C@@]4(O)[C@@H](C2)N(CC2CC2)CC[C@]314 [Compound 17] | 11.3 | 16.3 |  |  | delta antagonist potency / selectivity in words (delta opioid receptors [3]): A similar relationship was observed |
| O=C1/C(=C/c2ccc([N+](=O)[O-])cc2)C[C@@]2(O)[C@H]3Cc4ccc(O)c5c4[C@@]2(CCN3CC2CC2)[C@H]1O5 [IIa, E-7-(4-Nitrobenzylideno)naltrexone hydrochloride] |  |  | 111 | 1.90 |  |
| O=C1/C(=C/c2cccc([N+](=O)[O-])c2)C[C@@]2(O)[C@H]3Cc4ccc(O)c5c4[C@@]2(CCN3CC2CC2)[C@H]1O5 [IIb] |  |  | 20 | 5.97 |  |
| COc1ccc(/C=C2\C[C@@]3(O)[C@H]4Cc5ccc(O)c6c5[C@@]3(CCN4CC3CC3)[C@@H](O6)C2=O)cc1 [IIc] |  |  | 22 | 5.52 |  |
| COc1ccccc1/C=C1\C[C@@]2(O)[C@H]3Cc4ccc(O)c5c4[C@@]2(CCN3CC2CC2)[C@@H](O5)C1=O [IIe] |  |  | 0.84 | 120 |  |
| O=C1/C(=C/c2ccc(F)cc2)C[C@@]2(O)[C@H]3Cc4ccc(O)c5c4[C@@]2(CCN3CC2CC2)[C@H]1O5 [IIg] |  |  | 77 | 2.29 |  |
| O=C1/C(=C/c2cccc(F)c2)C[C@@]2(O)[C@H]3Cc4ccc(O)c5c4[C@@]2(CCN3CC2CC2)[C@H]1O5 [IIh] |  |  | 14 | 7.87 |  |
| O=C1/C(=C/c2ccccc2F)C[C@@]2(O)[C@H]3Cc4ccc(O)c5c4[C@@]2(CCN3CC2CC2)[C@H]1O5 [IIi] |  |  | 20 | 6.01 |  |
| O=C1/C(=C/c2ccccc2Cl)C[C@@]2(O)[C@H]3Cc4ccc(O)c5c4[C@@]2(CCN3CC2CC2)[C@H]1O5 [IIj] |  |  | 0.76 | 130 |  |
| O=C1/C(=C/c2cccc3ccccc23)C[C@@]2(O)[C@H]3Cc4ccc(O)c5c4[C@@]2(CCN3CC2CC2)[C@H]1O5 [IIl] |  |  | 8.5 | 12.7 |  |
| O=C1/C(=C/c2ccc3ccccc3c2)C[C@@]2(O)[C@H]3Cc4ccc(O)c5c4[C@@]2(CCN3CC2CC2)[C@H]1O5 [IIm] |  |  | 9.4 | 11.6 |  |
| O=C1CC[C@@]2(O)[C@H]3Cc4ccc(O)c5c4[C@@]2(CCN3CC2CC2)[C@H]1O5 [Naltrexone, naltrexone, reference compound] |  |  |  |  | block of morphine's effects (guinea pig ileum (GPI)): block morphine's effects; Kb (μ opioid receptor): 1 nM |

Reference: patent US5631263A, “Use of delta opioid receptor antagonists to treat immunoregulatory disorders” (Minneapolis Medical Research Foundation, priority 1995, dated 1997)
